Data on 2 molecules can be found in patent publication US20250034161A1, “SPIROCYCLIC COMPOUND AS KRAS-G12C INHIBITOR” (Shanghai Euregen Biopharma Co., Ltd., priority 2020, published 2025).

A short description of series [1]: Whole blood stability assay, rat whole blood. The following applies: 37° C. Type of series: in vitro ADME. Here is the method:
(§1) • 1. Test purpose: to determine the whole blood stability of the compounds by monitoring the clearance rate of the parent compound after incubation of some of the example compounds of the invention with dog and rat whole blood. • 2. […] Test method:
(§2) Then, the stock solution of the test compound was diluted to 1 mmol/L and 0.2 mmol/L with 70% acetonitrile aqueous solution, respectively, as working solution.
(§3) The working solution was added to the whole blood. The concentration of each test compound was 5 μmol/L. 90 μL was taken and then mixed evenly with 90 μL of water. Then 600 μL of acetonitrile termination solution containing propranolol as internal standard was added. Incubated at 37° C. in a water bath and shook gently. At 30, 60, 120 and 240 minutes, 90 μL of each mixture was placed on a clean 96-well plate prefilled with 90 μL of water, mixed well, and then 600 μL of acetonitrile termination solution containing propranolol as internal standard was added and centrifuged at 5000 g for 15 min. 80 μL of the supernatant was taken and placed in a 96-well plate preloaded with 160 μL of ultrapure water, then analyzed by LC-MS/MS.

Series [2] is described as follows: Plasma protein binding assay (equilibrium dialysis), human plasma. Type of series: in vitro ADME. Conditions: pH 7.4, equilibrium dialysis 5 hours, read-out: Plasma protein binding rate (%) (converted). Here is the method: (§4) • 1. Test purpose: to evaluate the protein binding rate of the test compound in human, dog, monkey, rat and mouse plasma by equilibrium dialysis; • 2. […] Experimental methods: • 0.1 mol/L sodium phosphate and 0.15 mol/L sodium chloride buffer with pH 7.4±0.1 was preheated;
(§5) Preparation of plasma containing test substance: the test compound was dissolved in DMSO to prepare a 10 mmol/l stock solution. 5 μL of stock solution was taken and diluted with 95 μL of acetonitrile to obtain solution A (0.5 mmol/L). 8 μL of solution A was taken and diluted with 192 μL of 0.1 mol/L sodium phosphate buffer to obtain solution B (0.02 mmol/L). 570 μL of plasma was added into a 96-well plate followed by the addition of 30 μL of solution B. The final concentration was 1 μmol/L with 0.01% DMSO.
(§6) The plate was shook at 600 rpm for 10 minutes, covered and stored in a freezer (−20° C.).
(§7) T5 sample preparation (in triplicate): the dialysis device was added with 100 μL of buffer on its receiver side and 100 μL of plasma containing the test compound on its doner side. And the dialysis device was then shook at 37° C. and 120 rpm for 5 hours. At the end of culture, 25 μL of plasma containing the test substance was taken from the plasma side and then added to a 96-well plate, followed by the addition of 25 μL of buffer and 200 μL of acetonitrile solution containing internal standard. […]
(In equilibrium dialysis only unbound substance equilibrates across the membrane.)

Series [3] can be described thus: Plasma protein binding assay (equilibrium dialysis), monkey plasma. The series is classed as in vitro ADME. The following applies: pH 7.4, equilibrium dialysis 5 hours, read-out: Plasma protein binding rate (%) (converted). Here is the method: as §4, §5, §6, §7
Series [4] is described as follows: Plasma protein binding assay (equilibrium dialysis), dog plasma. Type of series: in vitro ADME. Conditions: pH 7.4, equilibrium dialysis 5 hours, read-out: Plasma protein binding rate (%) (converted). Here is the method:
as §4, §5, §6, §7

In the next series the target is T1, CYP 2B6 (Homo sapiens, UniProt P20813).
T1 sequence (P20813 1-491): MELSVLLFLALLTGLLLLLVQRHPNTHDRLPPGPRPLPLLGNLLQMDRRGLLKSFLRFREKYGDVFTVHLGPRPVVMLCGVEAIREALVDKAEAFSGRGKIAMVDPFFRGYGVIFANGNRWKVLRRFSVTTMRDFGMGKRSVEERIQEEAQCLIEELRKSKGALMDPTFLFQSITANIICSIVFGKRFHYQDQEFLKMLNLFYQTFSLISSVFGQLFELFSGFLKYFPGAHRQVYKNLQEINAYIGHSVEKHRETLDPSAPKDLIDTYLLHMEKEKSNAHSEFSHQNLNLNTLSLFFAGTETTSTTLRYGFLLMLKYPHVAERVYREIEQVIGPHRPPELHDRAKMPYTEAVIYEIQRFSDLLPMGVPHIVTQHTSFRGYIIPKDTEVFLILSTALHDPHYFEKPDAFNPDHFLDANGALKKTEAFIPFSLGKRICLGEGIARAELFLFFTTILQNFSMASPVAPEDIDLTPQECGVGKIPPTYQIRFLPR
The series can be described thus: CYP inhibition test, human liver microsomes, CYP2B6. Here is the method: • 1. Test purpose: to evaluate the inhibitory ability of some of the example compounds of the present invention against CYP1A2, 2B6, 2C8, 2C9, 2C19, 2D6 and 3A4 via human liver microsomes. • 2. […] Test method:
• 1. K/Mg buffer: the components were 0.1 mol/L potassium phosphate and 5 mmol/L magnesium chloride with pH 7.4±0.1, preheated. • 2. Solution of the test compound: the test compound was dissolved in dimethyl sulfoxide to prepare a stock solution of 10 mmol/L. 8 μL of 10 mmol/L stock solution was transferred to a 96-well plate containing 12 μL of acetonitrile as the highest concentration point, at 3-fold dilution, for 8 concentrations. • 3. […] Human liver microsomal stock solution: human liver microsomes were dissolved in 0.1 mol/L K/Mg buffer to obtain 20 mg/mL stock solution. • 5. Human liver microsomal working solution: 10 μL of 20 mg/mL human liver microsomal stock solution was taken and added into 990 μL of 0.1 mol/L K/Mg buffer to prepare 0.2 mg/mL human liver microsomal solution. • 6.
600 μL of 0.2 mg/mL human liver microsomal solution and 3 μL of stepwise diluted test compound solution were added to the 96-well plate. 30 μL of the above solution was added on the 96-well plate followed by the addition of 15 μL of the corresponding substrate solution. […]
For orientation: Liver microsomes are vesicles of endoplasmic reticulum, rich in cytochrome P450 enzymes.

The nature of series [5]: Whole blood stability assay, dog whole blood. The series is classed as in vitro ADME. Conditions: 37° C. Here is the method:
as §1, §2, §3

Series [6] in a line: Plasma protein binding assay (equilibrium dialysis), rat plasma. Conditions: pH 7.4, equilibrium dialysis 5 hours, read-out: Plasma protein binding rate (%) (converted). The series is classed as in vitro ADME. Here is the method:
as §4, §5, §6, §7

Where only a bound is given, the exact number is not on record here.

As usually defined, the half-life is the time needed for the level to fall by half in the phase considered. Usually IC50 stands for the point on the concentration scale where inhibition reaches its midpoint. With `C=CC(=O)N1CCN(c2nc(=O)n(-c3c(C)ccnc3C(C)C)c3nc(-c4c(O)cccc4F)c(F)cc23)[C@@H](C)C1` [AMG510], the half-life at 5 μmol/L in series [1] was found to be 1.85 h; in series [5], 1.46 h. The fraction unbound at 5 h, 1 μmol/L was 0.075 in series [2], 0.017 in series [3], 0.079 in series [4] and 0.141 in series [6]. Besides, on CYP 2B6, the IC50 is above 10 µM.
For `C=C(F)C(=O)N1CCN(c2nc(OC[C@@H]3CCCN3C)nc3c2CCN(c2cccc4cccc(Cl)c24)C3)C[C@@H]1CC#N` [MRTX849], the figures for the half-life at 5 μmol/L in series [1] and in series [5] were 13.1 h and 6.15 h, respectively. The fraction unbound at 5 h, 1 μmol/L was 0.018 in series [2], 0.013 in series [3], 0.012 in series [4] and 0.01 in series [6]. The concentration for half-maximal inhibition (IC50) against CYP 2B6 turned out to be 3.93 µM.
